Read-outs that look alike come from different tables or passages of the source.
Columns and labels:
parental HEK cells = test: HEK parental Agonist Counterscreen Assay (non-transfected cells); format: cell-based; conditions: for Averaged Max % Response (±St. Dev.): activity relative to known control
Source text: The high control for the agonist counterscreen was Forskolin not acetylcholine.

GPR139 = target: T1, GPR139 (Homo sapiens, UniProt Q6DWJ6); test: GPR139 Agonist titration / agonist counterscreen assay (calcium detection, HEK-GPR139 cells); format: cell-based; design: expressed in transfected cells; host or cells: HEK Aequorin cells, Maxcyte transient transfection; conditions: GPR139 Agonist Activity; for Averaged Max % Response (±St. Dev.): activity relative to known control; for EC50: read-out: EC50
T1 sequence (Q6DWJ6 1-353): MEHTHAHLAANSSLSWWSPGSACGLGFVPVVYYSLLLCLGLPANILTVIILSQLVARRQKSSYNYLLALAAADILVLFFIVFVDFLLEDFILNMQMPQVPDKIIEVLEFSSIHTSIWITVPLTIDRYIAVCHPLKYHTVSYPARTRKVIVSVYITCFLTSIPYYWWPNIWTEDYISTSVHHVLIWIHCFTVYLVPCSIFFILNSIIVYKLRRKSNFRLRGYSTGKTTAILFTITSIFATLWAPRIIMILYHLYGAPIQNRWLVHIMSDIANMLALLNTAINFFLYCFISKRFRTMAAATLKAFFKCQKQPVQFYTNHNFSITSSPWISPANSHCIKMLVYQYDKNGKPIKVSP
Experimental: GPR activity was assessed using a calcium detection assay. […] Negative control samples were treated with DMSO. […] Intracellular calcium was measured using Calcium 5.

[1] = HEK Agonist Activity section of Table 4 (parental HEK counterscreen)
[2] = values printed in E-notation without unit
[3] = Homo sapiens, HEK293, HEK Agonist Activity section of Table 4 (parental HEK counterscreen)
[4] = Homo sapiens, HEK293, HEK Agonist Activity, parental non-transfected HEK cells
[5] = HEK Agonist Activity, parental non-transfected HEK cells

Lipophilic Efficiency (logD) (parental HEK cells; HEK Agonist Activity section)	Lipophilic Efficiency (logP) (parental HEK cells; HEK Agonist Activity section)	Averaged Max % Response (±St. Dev.) (GPR139)	Lipophilic Efficiency (logD) (GPR139; based on logD)	Lipophilic Efficiency (logP) (GPR139; based on logP)	Hill Slope (GPR139; fitted dose-response curve)	Efficiency Ligand (GPR139; ligand efficiency)	EC50 (GPR139; [2])	Lipophilic Efficiency (logD) (parental HEK cells; HEK Agonist Activity)	Lipophilic Efficiency (logP) (parental HEK cells; HEK Agonist Activity)	Efficiency Ligand (GPR139)	Hill Slope (GPR139)	Lipophilic Efficiency (logD) (GPR139)	Lipophilic Efficiency (logP) (GPR139)	EC50 (GPR139; HEK-GPR139 cells)	Compound	Averaged Max % Response (±St. Dev.) (parental HEK cells; HEK Agonist Activity section)	EC50 (parental HEK cells; [3])	Averaged Max % Response (±St. Dev.) (parental HEK cells; HEK Agonist Activity)	further results
		127.51 ± 13.72%	5.00	5.00	0.58	0.41	0.0267 µM	2.28	2.28						CC(NC(=O)Cn1ncc2c(Cl)cccc21)c1ccc2c(c1)OCCO2 (centres unmarked) [SR-01000155068]			−2.13 ± 1.88%	EC50 (parental HEK cells; [4]): > 14.1 µM
		112.00 ± 16.24%	6.04	6.04		0.47		1.85	1.85						Cc1ccccc1CN1CCN(CC(=O)NCCc2ccc(Cl)cc2)C1=O [SR-01000093460]			109.44 ± 22.66%	Hill Slope (parental HEK cells; HEK Agonist Activity): 15.09; EC50 (parental HEK cells; [5]): 11 µM
		120.13 ± 6.96%	5.35	5.34		0.47		1.53	1.52						COc1cccc(C(=O)NNC(=O)CCCOc2ccc(Cl)cc2Cl)c1 [SR-01000205482]			−5.45 ± 10.43%	EC50 (parental HEK cells; [5]): > 14.1 µM
1.86	1.41	91.29 ± 4.98%								0.36	0.68	3.43	2.99	0.373 µM	O=C1CCCCN1c1cccc(NS(=O)(=O)c2cc(Cl)ccc2Cl)c1 [SR-01000916375]	−1.52 ± 2.20%	> 14.1 µM		
2.11	2.11	103.06 ± 30.95%	4.59	4.59	0.81	0.38	0.0471 µM								O=C(CN1CCN(Cc2ccccc2F)C1=O)NCCc1ccc(Cl)cc1 [SR-01000125584]	0.37 ± 17.31%	> 14.1 µM		
1.39	1.39	94.94 ± 8.96%								0.29	0.87	2.52	2.52	1 µM	CCOc1ccccc1NC(=O)CN1C(=O)NC(C)(c2ccc(Cl)cc2Cl)C1=O (centres unmarked) [SR-01000072797]	4.41 ± 6.50%			EC50 (parental HEK cells; [1]): > 14.2 µM

Second part, the molecule before the results:

Compound	Lipophilic Efficiency (logD) (parental HEK cells; HEK Agonist Activity section)	Lipophilic Efficiency (logP) (parental HEK cells; HEK Agonist Activity section)	Averaged Max % Response (±St. Dev.) (GPR139)	Lipophilic Efficiency (logD) (GPR139; based on logD)	Lipophilic Efficiency (logP) (GPR139; based on logP)	Hill Slope (GPR139; fitted dose-response curve)	Efficiency Ligand (GPR139; ligand efficiency)	EC50 (GPR139; [2])	Lipophilic Efficiency (logD) (parental HEK cells; HEK Agonist Activity)	Lipophilic Efficiency (logP) (parental HEK cells; HEK Agonist Activity)	Efficiency Ligand (GPR139)	Hill Slope (GPR139)	Lipophilic Efficiency (logD) (GPR139)	Lipophilic Efficiency (logP) (GPR139)	EC50 (GPR139; HEK-GPR139 cells)	Averaged Max % Response (±St. Dev.) (parental HEK cells; HEK Agonist Activity section)	EC50 (parental HEK cells; [3])	Averaged Max % Response (±St. Dev.) (parental HEK cells; HEK Agonist Activity)	further results
Cc1ccccc1NC(=O)CSC1=C(C#N)C(c2ccccc2C(F)(F)F)C2=C(CCCC2=O)N1 (centres unmarked) [SR-01000484454]	−0.16	−0.16	96.91 ± 19.53%	1.98	1.98	0.52	0.28	0.0853 µM								27.15 ± 8.69%			EC50 (parental HEK cells; [1]): > 11.9 µM
COc1ccc(CCNC(=O)Nc2ccc(C)cc2)cc1 [SR-01000271555]	1.38	1.38	124.00 ± 20.16%	3.11	3.11	0.62	0.44	0.26 µM								14.71 ± 4.12%	> 14.1 µM		
Nc1ccc(C(=O)OCC(=O)NC2CCCc3ccccc32)cc1[N+](=O)[O-] (centres unmarked) [SR-01000034627]	1.47	1.47	64.98 ± 9.75%	3.27	3.27	2.03	0.34	0.245 µM								2.09 ± 12.58%	> 15.3 µM		
CCCCC(=O)OCC(=O)NCc1ccc(C)cc1 [SR-01000042109]	2.18	2.18	92.84 ± 12.11%								0.47	1.40	3.80	3.80	0.363 µM	21.12 ± 3.06%	> 15 µM		
CCCCn1c(C)c(N(CC)C(=O)C(C)(C)Oc2ccc(C)cc2)c(=O)[nH]c1=O [SR-01000071222]			126.32 ± 18.07%	5.83	5.82		0.42		2.01	2.01								4.62 ± 5.04%	EC50 (parental HEK cells; [4]): > 14.7 µM
COc1ccccc1CN1CCNC(=O)C1CC(=O)NCCCN1CCc2ccccc21 (centres unmarked) [SR-01000176838]	3.04	3.02	83.30 ± 1.40%								0.27	0.77	4.34	4.32	0.697 µM	−8.12 ± 1.57%	> 14.1 µM		
O=C(COc1ccc2ccccc2c1)NNC(=O)c1cccc([N+](=O)[O-])c1 [SR-01000362228]	2.17	2.17	84.08 ± 9.93%								0.30	1.38	3.11	3.10	1.6 µM	−0.15 ± 6.76%			EC50 (parental HEK cells; [1]): > 14.1 µM
COc1cc(C(C)=O)ccc1OCC(=O)OCC(=O)NCCCc1ccccc1 [SR-01000056458]	2.66	2.66	119.47 ± 9.11%	5.10	5.10	0.52	0.35	0.0509 µM								19.25 ± 6.92%	> 14.1 µM		
Cc1ccc(S(=O)(=O)NC(=O)NC(C)Cc2ccccc2)cc1 (centres unmarked) [SR-01000362293]			100.19 ± 16.30%	5.01	4.07	1.02	0.46	0.0335 µM	2.39	1.45								−7.08 ± 3.92%	EC50 (parental HEK cells; [4]): > 14.1 µM
CN(C)CCOc1cc(-c2cn[nH]c2)ccc1NC(=O)C1COc2ccc(F)cc2C1.O=C(O)C(F)(F)F.O=C(O)C(F)(F)F (centres unmarked) [SR-00000004118]			94.30 ± 8.24%			1.08										13.55 ± 13.03%			EC50 (parental HEK cells; [1]): > 14.1 µM
